As for `CSC1CC(=O)N1CC(=O)CCCCCCCc1ccccc1` (stereo not given), the melting point (usually the temperature of the solid-liquid transition) lay within 48 to 51 °C.

As to `COc1ccc(-c2ccc(C(=O)Nc3ccc4cc(CN5CCCC5)cnc4c3F)cc2)cc1`, the melting point was in the range of 217 to 220 °C.

For `CCCn1cc(C(=O)NCc2ccc(Cl)cc2)c(=O)c2cc(CO)sc21`, the melting point is 174 to 175 °C.

For the molecule `COc1cccc(CCSc2c(O)cc(-c3ccccc3)oc2=O)c1`, the melting point is 112 to 113 °C.

For `Oc1c(Cl)cc(Cl)c2cc(Cl)cnc12`, the melting point is 144 to 147 °C.

The molecule `Brc1ccc(C2OCCO2)cc1` showed a melting point of 56 to 57 °C.

In the case of `OC1C(CF)OC(n2cnc3c(NN4CCCCC4)nc(Cl)nc32)C1O` (stereo not given), the melting point lay within 199 to 201 °C.

For `CCOC(=O)c1cnc2c([N+](=O)[O-])cccc2c1Cl`, the melting point was 253 to 254 °C.

For `O=C(CCNNC(=O)c1ccccc1)OCc1ccccc1`, the melting point turned out to be 65 °C.

The molecule `O=C1CCCC(=O)C1=C(S)NCc1ccccc1` showed a melting point of 47 to 48 °C.

With `CCCCc1cc(CCCC)n2ncc(Br)c2n1`, the melting point is 47 to 48 °C.

In turn, `CC(C)c1cc(C(C)C)c(CC(=O)O)c(-c2ccc(F)cc2)c1CO` came in with a melting point of 124 to 126 °C.

Molecule `Cc1cc(Cl)cc2c(=O)oc(-c3cc(Cl)nn3-c3ncccc3Cl)nc12` displayed a melting point of 199 to 201 °C.

For `CCS(=O)c1nn(-c2ccccc2)c(=O)c2c(N)scc12` (stereo not given), the melting point lay in the range of 204 to 205 °C.

As for `CC(C)[C@H](CCC(=O)OCc1ccccc1)NC(=O)OC(C)(C)C`, the melting point was 94 to 96 °C.

With `Clc1ccc2c(C3CCN(CCCC4Cc5ccccc5C4)CC3)c[nH]c2c1`, the melting point lay in the range of 134 to 135 °C.

Turning to `CCN(CC)C(=O)Oc1cc(-c2cccc(Cl)c2)nc2ccccc12`, the melting point came out at 83 °C.

In the case of `Cn1c(C(=O)N[C@H]2CCCC[C@H]2C(=O)N[C@H](C#N)CO)cc2ccccc21`, the melting point was in the range of 78.4 to 79 °C.

`N#Cc1ccc(COc2cccc(OCc3ccc4ccccc4n3)c2)cc1` registered a melting point of 112 °C.

As for `COc1cn(-c2ccc(N3CCC3=O)cc2F)nc(-c2ccnn2-c2ccccc2)c1=O`, the melting point is 189 to 194 °C.

Take `CC(C)CCN1C(=O)C(N)C(=O)Nc2ccccc21` (stereo not given): the melting point lay within 148 to 150 °C.

Molecule `CCOc1nn(-c2ccc(C(F)(F)F)cn2)cc1CCOc1cccc(CC(=O)O)c1` gave a melting point of 128 to 130 °C.

For the molecule `CC(C)(C)OC(=O)NC1CCCCCC=CC2CC2(C(=O)NS(=O)(=O)C2CC2)NC(=O)C2CC(OC(=O)c3ccccn3)CN2C1=O` (stereo not given), the melting point was in the range of 164 to 166 °C.

The molecule `Cn1nnnc1SCC1NCCc2cc(OCc3ccccc3)c(OCc3ccccc3)cc21` (stereo not given) had a melting point of 106 to 108 °C.

For the molecule `CCc1cc(NC(=O)N2CCN(c3cc(N4CCCC4)nc(N4CCCC4)n3)CC2)c(OC)nc1C`, the melting point lay in the range of 162 to 166 °C.

As to `COc1ccc(Br)cc1C(=O)NCCc1ccc(CCC(=O)O)cc1`, the melting point lay within 120 to 121 °C.

Take `CCc1cc2c(ccc(=O)n2Cc2ccc(NC(=O)c3ccccc3S(=O)(=O)O)cc2)c(CC)n1`: the melting point was 233 to 236 °C.

Consider `O=C(O)c1cc([N+](=O)[O-])c(Cl)c(S(=O)(=O)Cl)c1`, for which the melting point fell in the range of 189 to 190 °C.

For the molecule `COc1cc2c(cc1[N+](=O)[O-])C(=O)C1(CC1)O2`, the melting point lay within 160 to 163 °C.

`CCCn1cc(C(=O)O)c(=O)c2cnc(N3CCN(C)CC3)nc21`: the melting point was 254 to 257 °C.

For the molecule `O=C(O)C=Cc1cn(Cc2cc(OCc3ccccc3)cc(OCc3ccccc3)c2)cc1-c1ccccc1`, the melting point was in the range of 182 to 183 °C.

In the case of `CC(Oc1ccc([N+](=O)[O-])cc1[N+](=O)[O-])C(=O)O` (stereo not given), the melting point lay in the range of 167 to 171 °C.

`CC1(O)OC(=O)c2ccc(Oc3ccc(C(F)(F)F)cc3Cl)cc21` (stereo not given) displayed a melting point of 100 to 103 °C.

Consider `COCOc1nn(-c2ccccc2)cc1C=O`, for which the melting point fell in the range of 106 to 107 °C.

On to `CCCCCCNC1=NS(=O)(=O)c2sc(Cl)cc2N1`, for which the melting point is 207 to 209 °C.

These data come from a melting point compilation (Tetko et al.; mined from patent text by program, amines drawn as free bases though some values may be those of a salt).
